# Assay results published in the supplement of paper PMC10307832.
# Tests used:
# Experiment in all cases: relative viability (nuclei count vs DMSO), 5 days (fraction); higher = more cells survive
# Kobe2602 + Trametinib = compound: C1=CC(=CC=C1NC(=S)NNC2=C(C=C(C=C2[N+](=O)[O-])C(F)(F)F)[N+](=O)[O-])F [Kobe2602] + CC(=O)Nc1cccc(-n2c(=O)n(C3CC3)c(=O)c3c(Nc4ccc(I)cc4F)n(C)c(=O)c(C)c32)c1 [Trametinib] (partner 0.02 µM)
# In short: (§1)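 Nuclei were stained with Hoechst during a one-step fixation (final 0.05% Triton X-100, 1% formaldehyde, 1 ug/ml Hoechst) carried out 5 days after dosing, then counted on 4× images. The cells, lung cancer lines in 1536-well plates, had been dosed by pin tool the day after seeding with one drug alone or a fixed anchor-drug dose plus five library-drug doses (not always all listed) in √10 steps. Relative viability is the nuclei count in treated wells divided by that in vehicle wells, and each value is the median of duplicate plates.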
# Kobe2602 + OSI-027 = compound: C1=CC(=CC=C1NC(=S)NNC2=C(C=C(C=C2[N+](=O)[O-])C(F)(F)F)[N+](=O)[O-])F [Kobe2602] + COc1cccc2cc(-c3nc([C@H]4CC[C@H](C(=O)O)CC4)n4ncnc(N)c34)[nH]c12 [OSI-027] (partner 0.5 µM)
# In short: as §1
# Zosuquidar + Linsitinib = compound: O[C@@H](COc1cccc2ncccc12)CN1CCN([C@@H]2c3ccccc3[C@@H]3[C@H](c4ccccc42)C3(F)F)CC1 [Zosuquidar] + C[C@]1(O)C[C@@H](c2nc(-c3ccc4ccc(-c5ccccc5)nc4c3)c3c(N)nccn32)C1 [Linsitinib] (partner 1 µM)
# In short: as §1
# Zosuquidar + Tozasertib = compound: O[C@@H](COc1cccc2ncccc12)CN1CCN([C@@H]2c3ccccc3[C@@H]3[C@H](c4ccccc42)C3(F)F)CC1 [Zosuquidar] + Cc1cc(Nc2cc(N3CCN(C)CC3)nc(Sc3ccc(NC(=O)C4CC4)cc3)n2)n[nH]1 [Tozasertib] (partner 0.1 µM)
# In short: as §1
Cell Line,relative viability (Kobe2602 + Trametinib; first compound 0.2 µM),relative viability (Kobe2602 + Trametinib; first compound 0.6325 µM),relative viability (Kobe2602 + Trametinib; first compound 2 µM),relative viability (Kobe2602 + Trametinib; first compound 6.325 µM),relative viability (Kobe2602 + Trametinib; first compound 20 µM),relative viability (Kobe2602 + OSI-027; first compound 0.2 µM),relative viability (Kobe2602 + OSI-027; first compound 0.6325 µM),relative viability (Kobe2602 + OSI-027; first compound 2 µM),relative viability (Kobe2602 + OSI-027; first compound 6.325 µM),relative viability (Kobe2602 + OSI-027; first compound 20 µM),relative viability (Zosuquidar + Linsitinib; first compound 0.01 µM),relative viability (Zosuquidar + Linsitinib; first compound 0.03162 µM),relative viability (Zosuquidar + Linsitinib; first compound 0.1 µM),relative viability (Zosuquidar + Linsitinib; first compound 0.3162 µM),relative viability (Zosuquidar + Linsitinib; first compound 1 µM),relative viability (Zosuquidar + Tozasertib; first compound 0.01 µM),relative viability (Zosuquidar + Tozasertib; first compound 0.03162 µM),relative viability (Zosuquidar + Tozasertib; first compound 0.1 µM),relative viability (Zosuquidar + Tozasertib; first compound 0.3162 µM),relative viability (Zosuquidar + Tozasertib; first compound 1 µM)
LU99A,0.546,0.647,0.571,0.534,0.593,0.336,0.329,0.281,0.342,0.333,0.5,0.54,0.483,0.539,0.659,0.215,0.229,0.257,0.254,0.271
LXF-289,0.665,0.658,0.663,0.691,0.62,0.836,0.836,0.777,0.879,0.87,0.888,1,0.94,0.981,1.03,0.244,0.2,0.179,0.222,0.187
NCI-H23,0.428,0.49,0.359,0.385,0.444,0.499,0.673,0.541,0.638,0.667,0.601,0.449,0.483,0.504,0.675,0.393,0.629,0.537,0.34,0.362
NCI-H322M,0.555,0.495,0.5,0.467,0.521,0.573,0.623,0.544,0.559,0.557,0.917,0.859,0.729,0.851,0.922,0.461,0.54,0.383,0.445,0.519
NCI-H358,0.138,0.15,0.135,0.16,0.141,0.754,0.872,0.873,0.672,0.887,0.768,0.726,0.715,0.735,0.75,0.109,0.12,0.093,0.1,0.0956
NCI-H441,0.509,0.496,0.472,0.433,0.54,0.616,0.563,0.536,0.631,0.783,0.505,0.594,0.498,,0.478,0.475,0.723,0.819,0.709,0.609
NCI-H460,,0.198,0.183,0.166,0.111,0.662,0.722,0.695,0.629,0.558,0.764,0.802,0.711,0.759,0.768,0.335,0.474,0.671,0.476,0.323
NCI-H520,0.682,0.642,0.744,0.644,0.788,0.281,0.287,0.227,0.235,0.266,0.984,0.945,0.888,0.946,1.08,0.413,0.441,,0.392,0.416
